Results on twelve molecules are retold here after patent US12662489B2 (Sitryx Therapeutics Limited, priority 2023, dated 2026).

SMILES strings stand for the structures.

The target of series [1] is T1, MTHFD1 recombinant human enzyme (Homo sapiens, UniProt P11586).
T1 sequence (P11586 2-291 limits assumed): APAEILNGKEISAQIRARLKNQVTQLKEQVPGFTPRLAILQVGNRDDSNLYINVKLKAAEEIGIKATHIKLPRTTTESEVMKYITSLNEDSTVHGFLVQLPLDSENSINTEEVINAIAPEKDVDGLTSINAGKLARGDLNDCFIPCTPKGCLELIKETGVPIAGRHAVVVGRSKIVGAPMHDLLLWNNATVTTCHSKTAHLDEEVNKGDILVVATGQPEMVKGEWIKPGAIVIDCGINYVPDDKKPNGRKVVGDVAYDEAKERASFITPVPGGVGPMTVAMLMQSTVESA
The experiment in a line: MTHFD1 inhibition assay (NAD(P)H-Glo luminescence). Particulars: MTHFD1 IC50, recombinant human enzyme 200 nM, NADP, band.

Series [2] deals with human CD4+ T cells. The series can be described thus: Human CD4+ T-cell proliferation assay (CFSE, CD3/28 beads). Particulars: read-out: Proliferation IC50.
Method: Cells were incubated at room temperature for 8 minutes in a rotator in the dark. 13 mL cRPMI was added to each tube and cells were centrifuged at 500×g for 4 minutes at room temperature before pellets were resuspended in 10 mL cRPMI. Cells were counted using the Auto2000 Cellometer and AO/PI viability stain and concentration adjusted to 0.6×10^6 cells/mL in cRPMI. […] Control wells were included for flow cytometry and edge wells were filled with 200 μL 1×dPBS. Cells were incubated at 37° C., 5% CO2 for 2 days before compound treatment. […] Cells were incubated at 37° C., 5% CO2 for a further 2 days prior to flow staining and supernatant harvest.
On the final day plates were centrifuged at 500×g for 4 minutes at room temperature. 125 μL of supernatants were transferred to a V bottom 96 well polystyrene plate and stored at −80° C. Plates were gently vortexed to disrupt the cell pellets before 125 μL 1×PBS was added to each well. Plates were centrifuged at 500×g for 4 minutes at room temperature and supernatants removed from the plates by aspirating. Plates were gently vortexed and 30 μL of live/dead stain (Invitrogen, L34975) in 1×dPBS was added and incubated for 15 minutes in the dark at 4° C. […] 100 μL of flow cytometry buffer was added and plates were centrifuged at 500×g for 4 minutes before supernatants were aspirated from the plates. Wells were resuspended in 200 μL flow cytometry buffer and plates stored at 4° C. before being run on the flow cytometer.
Data was analysed using FlowJo and the compensation matrix applied to all samples. The gates were set using unstained and unstimulated samples.
Series [3] has as its target T2, MTHFD2 recombinant human enzyme (Homo sapiens, UniProt P13995).
T2 sequence (P13995 36-350): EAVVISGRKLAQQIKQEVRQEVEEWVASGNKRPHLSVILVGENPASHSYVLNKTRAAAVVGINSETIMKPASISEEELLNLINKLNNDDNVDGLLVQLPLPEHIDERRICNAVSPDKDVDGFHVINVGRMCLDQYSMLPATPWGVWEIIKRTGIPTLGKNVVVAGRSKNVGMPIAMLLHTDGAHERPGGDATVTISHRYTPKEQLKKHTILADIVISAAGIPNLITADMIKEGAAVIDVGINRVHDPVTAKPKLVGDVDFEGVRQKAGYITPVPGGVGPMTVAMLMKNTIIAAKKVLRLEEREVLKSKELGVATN
The series can be described thus: MTHFD2 inhibition assay (NAD(P)H-Glo luminescence). To be noted: for MTHFD1/MTHFD2 IC50 ratio: selectivity of MTHFD2 inhibition over MTHFD1, band.

In series [4] the target is T3, human α4β2 neuronal nicotinic receptor (Homo sapiens, UniProt P17787+P43681).
T3 construct: host or cells: SH-SY5Y cells (membrane homogenates)
T3 sequence (P43681 29-627 limits assumed): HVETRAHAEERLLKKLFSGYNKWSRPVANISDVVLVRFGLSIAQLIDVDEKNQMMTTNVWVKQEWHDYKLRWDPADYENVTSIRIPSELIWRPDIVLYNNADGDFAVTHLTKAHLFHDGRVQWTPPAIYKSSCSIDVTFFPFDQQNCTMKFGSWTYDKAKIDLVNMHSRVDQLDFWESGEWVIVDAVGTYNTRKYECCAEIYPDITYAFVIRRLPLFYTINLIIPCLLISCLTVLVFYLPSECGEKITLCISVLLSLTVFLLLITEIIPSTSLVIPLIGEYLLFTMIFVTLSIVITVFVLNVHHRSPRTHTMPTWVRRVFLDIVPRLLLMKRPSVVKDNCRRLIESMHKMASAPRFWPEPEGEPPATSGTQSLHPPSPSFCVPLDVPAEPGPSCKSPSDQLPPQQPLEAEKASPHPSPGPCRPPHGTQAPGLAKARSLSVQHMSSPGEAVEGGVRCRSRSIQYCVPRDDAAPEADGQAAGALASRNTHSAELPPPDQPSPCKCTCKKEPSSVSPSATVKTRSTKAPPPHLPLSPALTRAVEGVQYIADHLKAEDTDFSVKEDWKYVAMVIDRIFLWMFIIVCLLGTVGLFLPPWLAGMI
T3 sequence (P17787 26-502): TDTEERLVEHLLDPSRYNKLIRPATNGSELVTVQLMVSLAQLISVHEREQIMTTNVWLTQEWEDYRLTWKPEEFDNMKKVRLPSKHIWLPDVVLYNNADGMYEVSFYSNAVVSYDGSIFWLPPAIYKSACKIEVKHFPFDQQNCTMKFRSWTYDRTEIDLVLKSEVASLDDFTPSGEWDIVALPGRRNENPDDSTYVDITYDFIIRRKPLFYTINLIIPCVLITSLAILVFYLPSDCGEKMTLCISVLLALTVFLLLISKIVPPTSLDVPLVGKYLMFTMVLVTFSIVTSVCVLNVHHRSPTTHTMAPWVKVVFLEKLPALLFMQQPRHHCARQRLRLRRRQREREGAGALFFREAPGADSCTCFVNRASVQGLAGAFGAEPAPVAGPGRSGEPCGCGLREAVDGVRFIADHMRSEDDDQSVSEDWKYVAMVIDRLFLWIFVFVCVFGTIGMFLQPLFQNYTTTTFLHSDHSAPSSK
The series can be described thus: α4β2 neuronal nicotinic receptor assay (agonist radioligand, [3H]cytisine). Format: binding. To be noted: transfected SH-SY5Y cell membranes, 0.6 nM [3H]cytisine, band. As for the experimental part: Cell membrane homogenates (30 μg protein) were incubated for 120 min at 4° C. with 0.6 nM [3H]cytisine in the absence or presence of the test compound in a buffer containing 50 mM Tris-HCl (pH 7.4), 120 mM NaCl, 5 mM KCl, 2.5 mM CaCl2 and 1 mM MgCl2. Nonspecific binding was determined in the presence of 10 μM nicotine bitartrate. Following incubation, the samples were filtered rapidly under vacuum through glass fiber filters (GF/B, Packard) presoaked with 0.3% PEI and rinsed several times with ice-cold 50 mM Tris-HCl using a 96-sample cell harvester (Unifilter, Packard).
The filters were dried then counted for radioactivity in a scintillation counter (Topcount, Packard) using a scintillation cocktail (Microscint 0, Packard). The results were expressed as a percent inhibition of the control radioligand specific binding. The standard reference compound was nicotine bitartrate.
A number of example compounds of formula (I) were tested to evaluate their affinity for the human α4β2 neuronal nicotinic receptor expressed in transfected SH-SY5Y cells, determined in a radioligand binding assay.

In series [5] the test system is murine KLH contact sensitization model. To be noted: cited from earlier work.
Series [6] deals with CD4+ T-cells. To be noted: cited from earlier work.
The test system of series [7] is murine EAE model. To be noted: cited from earlier work.

On to `COC[C@H]1CN(c2cc(C)c3c4c(c(=O)oc3c2C)CN(C(=O)c2cc(N(C)C)c(C(=O)NS(=O)(=O)N3CCCC3)cc2F)CC4)CCN1C` [Example 144, (R)-2-(dimethylamino)-5-fluoro-4-(8-(3-(methoxymethyl)-4-methylpiperazin-1-yl)-7,10-dimethyl-5-oxo-1,3,4,5-tetrahydro-2H-chromeno[3,4-c]pyridine-3-carbonyl)-N-(pyrrolidin-1-ylsulfonyl)benzamide], for which the IC50 fell in the range of 100 to 1000 nM in series [1], 1 to 10 nM in series [2], 1 to 10 nM in series [3] and 20 to 100 µM in series [4]. In series [3], the “MTHFD1/MTHFD2 IC50 ratio” value was “J (>30)”.
`COC[C@H]1CN(c2cc(C)c3c4c(c(=O)oc3c2C)CN(C(=O)c2ccc(C(=O)NS(=O)(=O)C3(C)CC3)c(N3CCCC3)c2F)CC4)CCN1C` [Example 69, (R)-3-fluoro-4-(8-(3-(methoxymethyl)-4-methylpiperazin-1-yl)-7,10-dimethyl-5-oxo-1,3,4,5-tetrahydro-2H-chromeno[3,4-c]pyridine-3-carbonyl)-N-((1-methylcyclopropyl)sulfonyl)-2-(pyrrolidin-1-yl)benzamide]: the IC50 was 10 to 100 nM in series [1], 1 to 10 nM in series [2], 10 to 100 nM in series [3] and above 100 µM in series [4]. For the same molecule, the “MTHFD1/MTHFD2 IC50 ratio” value in series [3] is on record as “G (^ 3 to 9.0)”.
With `COC[C@@H]1CN(c2cc(C)c3c4c(c(=O)oc3c2C)CN(C(=O)c2ccc(C(=O)NS(=O)(=O)N3CCCC3)c(OC3CCC3)c2F)CC4)CCN1C` [Example 174, (S)-2-cyclobutoxy-3-fluoro-4-(8-(3-(methoxymethyl)-4-methylpiperazin-1-yl)-7,10-dimethyl-5-oxo-1,3,4,5-tetrahydro-2H-chromeno[3,4-c]pyridine-3-carbonyl)-N-(pyrrolidin-1-ylsulfonyl)benzamide], the IC50 in series [1] is 100 to 1000 nM; in series [2] it was 10 to 30 nM; in series [3], 10 to 100 nM; in series [4], 20 to 100 µM. For the same molecule, the “MTHFD1/MTHFD2 IC50 ratio” value in series [3] was “G (^ 3 to 9.0)”.
Regarding `CCOc1c(C(=O)NS(=O)(=O)N2CCCC2)ccc(C(=O)N2CCc3c(c(=O)oc4c(C)c(N5CCN(C)[C@@H](COC)C5)cc(C)c34)C2)c1F` [Example 147, (R)-2-ethoxy-3-fluoro-4-(8-(3-(methoxymethyl)-4-methylpiperazin-1-yl)-7,10-dimethyl-5-oxo-1,3,4,5-tetrahydro-2H-chromeno[3,4-c]pyridine-3-carbonyl)-N-(pyrrolidin-1-ylsulfonyl)benzamide], the IC50 in series [1] lay in the range of 10 to 100 nM; in series [2] it was 1 to 10 nM; in series [3], 1 to 10 nM; in series [4], 20 to 100 µM. Moreover, the “MTHFD1/MTHFD2 IC50 ratio” value in series [3] is listed as “G (^ 3 to 9.0)”.
With `COC[C@H]1CN(c2cc(C)c3c4c(c(=O)oc3c2C)CN(C(=O)c2ccc(C(=O)NS(=O)(=O)N3CCCC3)c(OC3CCCC3)c2F)CC4)CCN1C` [Example 4, (R)-2-(cyclopentyloxy)-3-fluoro-4-(8-(3-(methoxymethyl)-4-methylpiperazin-1-yl)-7,10-dimethyl-5-oxo-1,3,4,5-tetrahydro-2H-chromeno[3,4-c]pyridine-3-carbonyl)-N-(pyrrolidin-1-ylsulfonyl)benzamide], the IC50 in series [1] lay within 1 to 10 nM; in series [2], 1 to 10 nM; in series [3] it was 1 to 10 nM; in series [4], 20 to 100 µM. Besides, the “MTHFD1/MTHFD2 IC50 ratio” value in series [3] is “F (<3)”.
On to `COC[C@H]1CN(c2ccc3c4c(c(=O)oc3c2C)CN(C(=O)c2ccc(C(=O)NS(=O)(=O)N3CCCC3)c(OC3CCC3)c2F)CC4)CCN1C` [Example 54, (R)-2-cyclobutoxy-3-fluoro-4-(8-(3-(methoxymethyl)-4-methylpiperazin-1-yl)-7-methyl-5-oxo-1,3,4,5-tetrahydro-2H-chromeno[3,4-c]pyridine-3-carbonyl)-N-(pyrrolidin-1-ylsulfonyl)benzamide], for which the IC50 in series [1] was 10 to 100 nM; in series [2], 10 to 30 nM; in series [3], 10 to 100 nM; in series [4], above 100 µM. Besides, the “MTHFD1/MTHFD2 IC50 ratio” value in series [3] is listed as “F (<3)”.
For `COC[C@H]1CN(c2cc(C)c3c4c(c(=O)oc3c2C)CN(C(=O)c2ccc(C(=O)NS(=O)(=O)N3CCCC3)c(OC3CCC3)c2)CC4)CCN1C` [Example 1, (R)-2-cyclobutoxy-4-(8-(3-(methoxymethyl)-4-methylpiperazin-1-yl)-7,10-dimethyl-5-oxo-1,3,4,5-tetrahydro-2H-chromeno[3,4-c]pyridine-3-carbonyl)-N-(pyrrolidin-1-ylsulfonyl)benzamide], the IC50 in series [1] was 100 to 1000 nM; in series [2] it was 1 to 10 nM; in series [3] it was 100 to 1000 nM; in series [4], 2 to 20 µM. In addition, the “MTHFD1/MTHFD2 IC50 ratio” value in series [3] is listed as “F (<3)”.
As to `COC[C@H]1CN(c2cc(C)c3c4c(c(=O)oc3c2C)CN(C(=O)c2ccc(C(=O)NS(=O)(=O)N3CCCC3)cc2F)CC4)CCN1C` [Example 175, (R)-3-fluoro-4-(8-(3-(methoxymethyl)-4-methylpiperazin-1-yl)-7,10-dimethyl-5-oxo-1,3,4,5-tetrahydro-2H-chromeno[3,4-c]pyridine-3-carbonyl)-N-(pyrrolidin-1-ylsulfonyl)benzamide], the IC50 in series [1] lay in the range of 1000 to 5000 nM; in series [2], 1000 to 5000 nM; in series [3], 10 to 100 nM; in series [4], 20 to 100 µM. The “MTHFD1/MTHFD2 IC50 ratio” value in series [3] was “J (>30)”.
For `COC[C@H]1CN(c2cc(C)c3c4c(c(=O)oc3c2C)CN(C(=O)c2cc(N(C)C)c(C(=O)NS(=O)(=O)C3(C)CC3)cc2F)CC4)CCN1C` [Example 145, (R)-2-(dimethylamino)-5-fluoro-4-(8-(3-(methoxymethyl)-4-methylpiperazin-1-yl)-7,10-dimethyl-5-oxo-1,3,4,5-tetrahydro-2H-chromeno[3,4-c]pyridine-3-carbonyl)-N-((1-methylcyclopropyl)sulfonyl)benzamide], the IC50 was 100 to 1000 nM in series [1], 10 to 30 nM in series [2], 1 to 10 nM in series [3] and above 100 µM in series [4]. Besides, the “MTHFD1/MTHFD2 IC50 ratio” value in series [3] is on record as “J (>30)”.
Consider `Cc1c(N2CCN(C)[C@@H](C)C2)ccc2c3c(c(=O)oc12)CN(C(=O)c1ccc(NS(C)(=O)=O)c(OC(F)(F)F)c1)CC3` [DS18561882], for which the “tolerability at the therapeutic doses used” value in series [5] (in vivo) is reported as “well tolerated”. Moreover, the ear-swelling result in series [5] (murine KLH contact sensitization model) is “could reduce ear-swelling”. In addition, the “number of Th1 and Th17 cells differentiated in vitro from CD4+ T-cells and expression of the respective Th1 and Th17 cytokines” value in series [6] is listed as “greatly decreased”. Moreover, in series [6] (in vitro), the “IFNγ and IL-17” value is “significantly reduced”; the “immune-suppressive Treg cells” value was “increased”.
Turning to `COC[C@H]1CN(c2cc(C)c3c4c(c(=O)oc3c2C)CN(C(=O)c2cc(N(C)C)c(C(=O)NS(=O)(=O)N3CCCC3)cc2Cl)CC4)CCN1C` [Example 150, (R)-5-chloro-2-(dimethylamino)-4-(8-(3-(methoxymethyl)-4-methylpiperazin-1-yl)-7,10-dimethyl-5-oxo-1,3,4,5-tetrahydro-2H-chromeno[3,4-c]pyridine-3-carbonyl)-N-(pyrrolidin-1-ylsulfonyl)benzamide], the IC50 in series [1] lay within 1000 to 5000 nM; in series [2] it was 10 to 30 nM; in series [3], 10 to 100 nM; in series [4], 20 to 100 µM. Besides, in series [3], the “MTHFD1/MTHFD2 IC50 ratio” value is reported as “J (>30)”.
In the case of `Nc1nc2c(c(=O)[nH]1)N1C(=O)N(c3ccc(C(=O)N[C@@H](CCC(=O)O)C(=O)O)cc3)CC1CN2` (stereo partly shown) [LY345899], the “tolerability at the therapeutic doses used” value in series [7] (in vivo) was “well tolerated”. In series [7] (mice, oral, day 4 to day 26), the “disease severity and cumulative clinical score compared to vehicle” value is “significantly reduced”; the “immune cell infiltrate into the spinal cord” value is given as “reduced”.
